In article PMC8347481, “Germacranolides from Carpesium divaricatum: Some New Data on Cytotoxic and Anti-Inflammatory Activity” (Molecules, 2021):
Read-outs that look alike come from different tables or passages of the source.

What was measured:
[1] = system: PC3; assay: LDH cell viability assay, prostate cancer cells; format: cell-based; settings: Homo sapiens, PC-3; for IC50: PC3, 24 h, LDH assay
Experimental: Normal prostate epithelial cells (PNT2), two prostate cancer cell lines (Du145 and PC3), human keratinocytes (HaCaT), two melanoma cell lines (A375 and HTB140) and two colon cancer cell lines (HT29 and Caco-2) were treated with 3 at a concentration range 1.0–50.0 µg/mL. Viability of the cells was estimated using lactate dehydrogenase (LDH) assay.
Cytotoxic activity of 3 was tested on human cancer and normal cells, grouped in three panels: prostate, skin and gastrointestinal. The prostate panel comprised prostate cancer cell lines DU145 (ATCC HTB-81) and PC3 (ATCC CRL-1435) and prostate normal epithelial cells PNT2 (ECACC 95012613). Melanoma cell lines A375 (ATCC CRL-1619) and HTB140 (ATCC Hs 294T) together with human keratinocytes HaCaT (obtained as a kind gift of Prof. Marta Michalik, Department of Cell Biology, Jagiellonian University) were included in the skin panel. Two colon cancer cell lines, namely Caco-2 (ATCC HTB-37) and HT29 (ATCC HTB-38), constituted the gastrointestinal panel. Du145 cells were grown in a modified Eagle’s medium with low (1.0 g/L) glucose concentration; HT29, PC3 and PNT-2 cells were grown in Dulbecco’s modified Eagle’s medium (DMEM) and F12 HAM Nutrient Mixture; Caco-2 cells were grown in modified Eagle’s medium with nonessential amino acids (NEAA); and melanoma cells and keratinocytes were maintained in modified Eagle’s medium with high (4.5 g/L) glucose concentration. The culture media contained antibiotics and 10% fetal bovine serum (FBS). All cultures were maintained at 37 °C in a humidified, 5% CO2-containing atmosphere.
The examined compound (3) was diluted in the culture media from freshly made stock solution in MeOH (10 mg/mL) to the working concentrations (from 0 to 50 μg/mL). Cell viability was determined as described previously. […] Then, the culture medium was replaced with the medium containing different concentrations of the assessed compound (1–50 μg/mL). After 24 h of incubation, the viability of the cells was determined using colorimetric lactate dehydrogenase (LDH) assay in comparison to the controls to which corresponding aliquots of MeOH diluted with culture media were added. Cells grown in the medium without the tested compound were used as control I (negative), and the positive control (control II) was obtained by incubation of the cells in the medium containing 1% Triton X-100. LDH released from the damaged cells into the cell culture medium was quantified by measuring the absorbance at 490 nm using a Synergy II Biotek microplate reader. Cytotoxicities of the examined compounds were calculated as follows: ((absorbance of the tested sample−absorbance of control I)/(absorbance of control II−absorbance of control I)) × 100. Results were means of three independent measurements (± SD). Doxorubicin (Ebewe Pharma G.m.b.H., Unterach, Austria) was used as a reference cytostatic drug.

[2] = system: normal and cancer cell lines (prostate, skin, gastrointestinal panels); assay: LDH cytotoxicity, whole panel of normal and cancer cell lines; format: cell-based; settings: Homo sapiens; 24 h treatment, cell density 1.5 × 10^4; doxorubicin: except PC3 cells; read-out: IC50 range over the cell lines
Experimental: Cytotoxic activity of 3 was tested on human cancer and normal cells, grouped in three panels: prostate, skin and gastrointestinal. The prostate panel comprised prostate cancer cell lines DU145 (ATCC HTB-81) and PC3 (ATCC CRL-1435) and prostate normal epithelial cells PNT2 (ECACC 95012613). Melanoma cell lines A375 (ATCC CRL-1619) and HTB140 (ATCC Hs 294T) together with human keratinocytes HaCaT (obtained as a kind gift of Prof. Marta Michalik, Department of Cell Biology, Jagiellonian University) were included in the skin panel. Two colon cancer cell lines, namely Caco-2 (ATCC HTB-37) and HT29 (ATCC HTB-38), constituted the gastrointestinal panel. […]
The examined compound (3) was diluted in the culture media from freshly made stock solution in MeOH (10 mg/mL) to the working concentrations (from 0 to 50 μg/mL). Cell viability was determined as described previously. […] Then, the culture medium was replaced with the medium containing different concentrations of the assessed compound (1–50 μg/mL). After 24 h of incubation, the viability of the cells was determined using colorimetric lactate dehydrogenase (LDH) assay in comparison to the controls to which corresponding aliquots of MeOH diluted with culture media were added. […] LDH released from the damaged cells into the cell culture medium was quantified by measuring the absorbance at 490 nm using a Synergy II Biotek microplate reader. […]

Q: For `C=C1C(=O)O[C@H]2[C@H]1[C@@H](O)[C@H](OC(=O)CC(C)C)[C@H](C)CCC(=O)[C@](C)(O)[C@@H]2OC(=O)C(C)C` [Compound 3], which viability at 1 µg/mL ([1]; PC3, 1 µg/mL, 24 h, read-out: Cell Viability (%) ± SD) is on record?
A: 78.5 ± 1.08%

Q: What about the viability at 3 µg/mL ([1]; PC3, 3 µg/mL, 24 h, read-out: Cell Viability (%) ± SD) of the same molecule?
A: 65 ± 1.46%

Q: And the viability at 5 µg/mL ([1]; PC3, 5 µg/mL, 24 h, read-out: Cell Viability (%) ± SD)?
A: 49.9 ± 2.02%

Q: What about the viability at 10 µg/mL ([1]; PC3, 10 µg/mL, 24 h, read-out: Cell Viability (%) ± SD) of the same molecule?
A: 37.2 ± 1.27%

Q: What about the viability at 20 µg/mL ([1]; PC3, 20 µg/mL, 24 h, read-out: Cell Viability (%) ± SD) of the same molecule?
A: 29.2 ± 1.89%

Q: And the viability at 30 µg/mL ([1]; PC3, 30 µg/mL, 24 h, read-out: Cell Viability (%) ± SD)?
A: 5.42 ± 2.25%

Q: What about the viability at 50 µg/mL ([1]; PC3, 50 µg/mL, 24 h, read-out: Cell Viability (%) ± SD) of the same molecule?
A: 0.65 ± 0.33%

Q: And the IC50 ([1]; value in parentheses, read-out: IC50 (IC50 µM) (converted))?
A: 19.1 µM

Q: And the IC50 ([1]; read-out: IC50)?
A: 8.92 ± 1.02 µg/mL

Q: And the IC50 [2]?
A: 8.3 to 35 µM
